According to US20260191793A1, “HBV SPECIFIC EXOSOMES AND USES THEREOF” (priority 2022, published 2026):

Experiments:
[1] = system: HBV replication in HepG2/2.2.15 cells; assay: Antiviral efficiency of synthetic gRNA/Cas9 RNPs in HepG2/2.2.15 cells (HBsAg/HBeAg ELISA, HBV mRNA and HBV DNA real-time PCR); type: cell-based, Hepatitis B virus (HBV); parameters: reduction in HBsAg expression / reduction of HBV mRNA expression: concentration or dose not given beside the values; settings: for reduction of HBV mRNA expression: HepG2/2.2.15 cells, real-time PCR, vs gRNAc; for reduction in HBsAg expression: HepG2/2.2.15 supernatant, 3 days after nucleofection, ELISA, vs scrambled gRNAc; for antiviral efficacy among the 9 gRNAs tested: HepG2.2.15 cells
Protocol: The HepG2.2.15 Human Hepatoblastoma cell line (Cat #SCC249, MilliporeSigma, Burlington, MA) is a traditional HBV cellular model that is widely used for studying HBV infection and drug development. HepG2.2.15 cells display constitutive HBV RNA transcription and DNA replication, but a lesser detection of cccDNA by Southern blot and PCR detection. The HepG2/2.2.15 cells were cultured in DMEM (Cat #MT10013CV, Fisher Scientific, Waltham, MA) supplemented with 10% Fetal bovine serum, penicillin, and streptomycin (50 ug/ml each; Fisher Scientific) and maintained at 37° C. and 5% CO2 atmosphere. The Amaxa Cell Line Nucleofector Kit V (Lonza VCA-1003) was used to deliver gRNA/Cas9 into HepG2/2.2.15 cells stably expressing HBV. For each transfection, 160 μM gRNA and 160 μM tracrRNA were first incubated at 37° C. for 30 minutes, followed by adding 80 μM Cas9 protein and incubating at 37° C. for 15 minutes. Approximately 40 μM of the gRNA/Cas9 complex was transfected into HepG2/2.2.15 cells (5×10^5) following the manufacturer's instructions. After 72 hours, the culture supernatants were harvested to measure HBV antigens by ELISA, and the cell pellets were used to determine HBV DNA or mRNA levels by real-time-PCR.
The levels of HBsAg and HBeAg in the supernatants of cell cultures were determined by ELISA (Cat #KA0286 and NBP2-600029, Novus Biologicals, Littleton, CO) according to the manufacturer's protocol. The optical density of antigen levels was measured at 450 nm using a microplate spectrophotometer. The samples were run in triplicate, and the experiments were repeated at least three times.
Total RNA was extracted from the cell pellets by the RNeasy Mini kit (Cat #74104, QIAGEN, Germantown, MD), and 1 μg RNA was converted to cDNA using the Applied Biosystems High-Capacity cDNA Reverse Transcription Kit (Cat #43-688-14, ThermoFisher, Waltham, MA). Quantitative real-time PCR (real-time-qPCR) was performed using iTaq Universal SYBR Green Supermix (Cat #1725124, Bio-Rad, Hercules, CA). The PCR primers were: HBV mRNA forward, 5′-[…]-3′ (SEQ ID NO: 52), reverse, 5′-[…]-3′ (SEQ ID NO: 53); HBV pgRNA forward 5′-[…]-3′ (SEQ ID NO: 54), reverse 5′-[…]-3′ (SEQ ID NO: 55); and GAPDH forward 5′-[…]-3′ (SEQ ID NO: 56), reverse 5′-[…]-3′ (SEQ ID NO: 57). The gene expression levels were determined by the […] method and values were normalized to GAPDH expression as an internal control.
Total and protein-free HBV DNAs were extracted from whole cell lysate using the Hirt DNA method according to a previously published protocol. For HBV cccDNA analysis, the protein-free DNA was treated with 10 units of T5 exonuclease (NEB) at 37° C. for 30 min, followed by 95° C. for 5 min, and diluted 4-fold with nuclease-free water. Next, the cccDNA was cleaned with a DNA clean and concentrator kit (ZYMO Research, Irvine, CA) and used for PCR. HBV total DNA and cccDNA were analyzed by real-time PCR using a TaqMan PCR assay. The primers and probe used to amplify HBV total DNA were: HBV total DNA forward: 5′-[…]-3′ (SEQ ID NO: 58), reverse 5′-[…]-3′ (SEQ ID NO: 59), and internal probe: 5′-FAM-[…]-TAMRA-3′ (SEQ ID NO: 60). The primers and probe used to amplify HBV cccDNA (Genotype D, subtype ayw) were: forward: 5′-[…]-3′ (SEQ ID NO: 61), reverse 5′-[…]-3′ (SEQ ID NO: 62), and internal probe 5′-FAM-[…]-TAMRA-3′ (SEQ ID NO: 63). The PCR reactions were performed in 20 μl volumes and contained 2 μl DNA. The PCR conditions were: 95° C. for 10 min, followed by 45 cycles of 95° C. for 15 s and 64° C. for 30 s. The DNA levels were determined by the […] method and values were normalized to the control group.
Because the hepatoma cell line HepG2/2.2.15 is a traditional HBV cellular model used to test the efficacy and cytotoxicity of anti-HBV drugs, the synthetic gRNA/Cas9 RNPs were tested for their antiviral efficiency in HepG2/2.2.15 cells. […]

HepDE19 cells = assay: Cytotoxicity, cell viability by MTT assay; type: cell-based, human; settings: for cell viability in the presence of TNFα: Tet-free medium, TNFα (10 ng/ml); for cell viability (MTT): with or without Tet-free medium, 24 h, vs non-transfected (NT) control
Protocol: The MTT assay was used to determine metabolic activity and cell viability as an indicator of cellular cytotoxicity. Twenty-four hours after gRNA/Cas9 transfection, the cells were cultured in a Tet-free medium for an additional 24 h. For measuring cell proliferation, the cells were cultured in the Tet-free medium for an additional 3 days in a 96-well plate. The culture medium (100 μl) was changed and MTT reagent (0.5 mg/ml) was added at 37° C. for 4 h, followed by measuring the absorbance at 550-690 nm using a spectrophotometer (BioTek SYNERGY H1).
NAD (P) H-dependent cellular oxidoreductase enzymes reduce the tetrazolium MTT (3-(4,5-Dimethylthiazol 2-yl)-2,5-diphenyltetrazolium bromide) salt into insoluble formazan, which indicates the overall survival and metabolic activity of a living cell. To determine whether gRNA5/Cas9 or gRNA9/Cas9 exert any cytotoxic effects on HepDE19 cells, cell viability after transfection with gRNA5 or gRNA9 in the presence or absence of Tet-free medium (for HBV induction) for 24 h was measured using the MTT assay. […] Since HBV itself is not a direct cytopathic pathogen but can induce cell injury via immune-mediated mechanisms, the viability of transfected and non-transfected HepDE19 cells cultured in a Tet-free medium in the presence of TNFα, which can induce apoptotic cell death, was observed. […] Moreover, flow cytometry analysis was performed to detect the cell surface apoptotic marker annexin V and the loss of the plasma membrane integrity (measured by up taking 7-ADD). Cell apoptosis was then evaluated by measuring the Av and 7ADD levels in gRNA-transfected HepDE19 cells with or without Tet-free medium. No significant differences in cell apoptosis among the different treatments were observed (FIG. 16C). Finally, the proliferative ability of HepDE19 cells with or without gRNA transfection for 3 days was assessed, using the MTT assay. No significant differences in cell proliferation were found (FIG. 16D).

Sequence | reduction of HBV mRNA expression [1] | reduction in HBsAg expression [1] [%] | antiviral efficacy among the 9 gRNAs tested [1] | cytotoxicity to hepatocytes (overall conclusion) (HepDE19 cells) | cell viability in the presence of TNFα (HepDE19 cells) | cell viability (MTT) (HepDE19 cells) | cell viability (MTT) (HepDE19 cells; listed as gRNA9/Cas9) | cell viability (MTT) (HepDE19 cells; listed as gRNA5/Cas9)
GGTCTCCATGCGACGTGCAGNGG [gRNA9] | ~ 50% | 50 | most specific and potent antiviral efficacy | not cytotoxic | No cytotoxic effects | no significant differences in the viability | no differences in the viability | –
GTTATCGCTGGATGTGTCTGNGG (guide GUUAUCGCUGGAUGUGUCUGNGG; complexed with Cas9 protein, chemistry not fully specified) [gRNA5, tested as synthetic gRNA/Cas9 RNP] | ~ 50% | 50 | most specific and potent antiviral efficacy | not cytotoxic | No cytotoxic effects | no significant differences in the viability | – | no differences in the viability
